Assay results as given in patent US20240025883A1, “PYRIMIDIN-2-YL SULFONAMIDE DERIVATIVES” (Hoffmann-La Roche Inc., priority 2021, published 2024).

Biological target: human GPR17 short isoform (Homo sapiens (Human), UniProt Q13304)
Experiment: GPR17 cAMP assay (hGPR17 cAMP, antagonist mode against EC80 of MDL29,951)
Type: cell-based
Details: CHO-K1 cells stably expressing human GPR17 short isoform; EC80 of agonist MDL29,951; forskolin 15 μM
How it was run: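 cAMP was read by competitive TR-FRET after a 30 min room-temperature stimulation: antagonists plus EC80 MDL29,951 and 0.5 mM IBMX, followed 5 min later by 15 μM forskolin. Cells were CHO-K1 with stable human GPR17 short isoform in HBSS/HEPES/BSA, pH 7.4; percent activity versus reference antagonist fitted sigmoidally.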

Sequence of human GPR17 short isoform (Q13304 29-367): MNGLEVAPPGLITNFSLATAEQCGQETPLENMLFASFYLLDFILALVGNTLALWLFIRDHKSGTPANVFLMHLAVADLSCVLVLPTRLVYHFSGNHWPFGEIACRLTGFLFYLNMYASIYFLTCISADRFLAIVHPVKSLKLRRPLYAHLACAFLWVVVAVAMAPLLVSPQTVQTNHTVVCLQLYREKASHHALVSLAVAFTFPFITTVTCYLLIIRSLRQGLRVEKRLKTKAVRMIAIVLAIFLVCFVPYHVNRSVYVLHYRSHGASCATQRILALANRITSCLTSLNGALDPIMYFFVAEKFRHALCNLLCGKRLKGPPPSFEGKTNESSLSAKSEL

SMILES | IC50 [nM]
COCc1nc(NS(=O)(=O)c2c[nH]c3cc(Cl)ccc23)nc(OC)c1Br [Example 81, N-[5-bromo-4-methoxy-6-(methoxymethyl)pyrimidin-2-yl]-6-chloro-1H-indole-3-sulfonamide] | 5700
COc1nc(NS(=O)(=O)c2csc3cc(Cl)ccc23)ncc1CC(F)F [Example 154, 6-chloro-N-[5-(2,2-difluoroethyl)-4-methoxy-pyrimidin-2-yl]benzothiophene-3-sulfonamide] | 45
COc1nc(NS(=O)(=O)c2c[nH]c3cc(Cl)ccc23)ncc1OC(F)F [Example 8, 6-chloro-N-[5-(difluoromethoxy)-4-methoxy-pyrimidin-2-yl]-1H-indole-3-sulfonamide] | 182
CCc1c(OC)nc(NS(=O)(=O)c2c[nH]c3cc(Cl)ccc23)nc1OC [Example 16, 6-chloro-N-(5-ethyl-4,6-dimethoxy-pyrimidin-2-yl)-1H-indole-3-sulfonamide] | 23
COc1nc(NS(=O)(=O)c2c[nH]c3cc(Cl)ccc23)nc(CC2CC2)c1Br [Example 80, N-[5-bromo-4-(cyclopropylmethyl)-6-methoxy-pyrimidin-2-yl]-6-chloro-1H-indole-3-sulfonamide] | 20800
COc1nc(NS(=O)(=O)c2c[nH]c3nc(Cl)ccc23)ncc1OC(F)(F)CF [Example 220, 6-chloro-N-[4-methoxy-5-(1,1,2-trifluoroethoxy)pyrimidin-2-yl]-1H-pyrrolo[2,3-b]pyridine-3-sulfonamide] | 27
CCc1nc(NS(=O)(=O)c2c[nH]c3cc(Cl)ccc23)nc(OC)c1OCC(F)F [Example 77, 6-chloro-N-[5-(2,2-difluoroethoxy)-4-ethyl-6-methoxy-pyrimidin-2-yl]-1H-indole-3-sulfonamide] | 148
COc1nc(NS(=O)(=O)c2c[nH]c3cc(Cl)ccc23)nc(OC)c1Cl [Example 11, 6-chloro-N-(5-chloro-4,6-dimethoxy-pyrimidin-2-yl)-1H-indole-3-sulfonamide] | 91
COc1nc(NS(=O)(=O)c2c[nH]c3cc(Cl)ccc23)nc(C(C)(F)F)c1Br [Example 82, N-[5-bromo-4-(1,1-difluoroethyl)-6-methoxy-pyrimidin-2-yl]-6-chloro-1H-indole-3-sulfonamide] | 752
COc1nc(NS(=O)(=O)c2c[nH]c3cc(Cl)ccc23)ncc1OCCC(F)(F)F [Example 40, 6-chloro-N-[4-methoxy-5-(3,3,3-trifluoropropoxy)pyrimidin-2-yl]-1H-indole-3-sulfonamide] | 628
COc1nc(NS(=O)(=O)c2c[nH]c3cc(Cl)ccc23)nc(Cl)c1OC [Example 75, 6-chloro-N-(4-chloro-5,6-dimethoxy-pyrimidin-2-yl)-1H-indole-3-sulfonamide] | 946
COc1nc(NS(=O)(=O)c2c[nH]c3cc(Cl)ccc23)nc(C)c1CC(F)F [Example 78, 6-chloro-N-[5-(2,2-difluoroethyl)-4-methoxy-6-methyl-pyrimidin-2-yl]-1H-indole-3-sulfonamide] | 244
COc1nc(NS(=O)(=O)c2c[nH]c3c2ccc2cccnc23)nc(OC)c1OC(F)F [Example 116, N-[5-(difluoromethoxy)-4,6-dimethoxy-pyrimidin-2-yl]-1H-pyrrolo[3,2-h]quinoline-3-sulfonamide] | 26
COc1nc(NS(=O)(=O)c2c[nH]c3c(C)c(Br)ccc23)ncc1CC(F)F [Example 184, 6-bromo-N-[5-(2,2-difluoroethyl)-4-methoxy-pyrimidin-2-yl]-7-methyl-1H-indole-3-sulfonamide] | 29
COc1nc(NS(=O)(=O)c2c[nH]c3cc(Cl)ccc23)ncc1CC(F)(F)C(F)F [Example 261, 6-chloro-N-[4-methoxy-5-(2,2,3,3-tetrafluoropropyl)pyrimidin-2-yl]-1H-indole-3-sulfonamide] | 91
COc1nc(NS(=O)(=O)c2c[nH]c3cc(Cl)ccc23)nc(SC)c1OC(F)F [Example 86, 6-chloro-N-[5-(difluoromethoxy)-4-methoxy-6-methylsulfanyl-pyrimidin-2-yl]-1H-indole-3-sulfonamide] | 117
O=S(=O)(Nc1ncc(OCC(F)F)cn1)c1c[nH]c2cc(Cl)ccc12 [Example 34, 6-chloro-N-[5-(2,2-difluoroethoxy)pyrimidin-2-yl]-1H-indole-3-sulfonamide] | 924
COc1nc(NS(=O)(=O)c2c[nH]c3cc(Cl)ccc23)nc(OC)c1CCS(C)(=O)=O [Example 281, 6-Chloro-N-[4,6-Dimethoxy-5-(2-Methylsulfonylethyl)Pyrimidin-2-Yl]-1H-Indole-3-Sulfonamide] | 237
COc1nc(NS(=O)(=O)c2c[nH]c3cc(CC#N)ccc23)ncc1CC(F)F [Example 197, 6-(cyanomethyl)-N-[5-(2,2-difluoroethyl)-4-methoxy-pyrimidin-2-yl]-1H-indole-3-sulfonamide] | 981
COc1nc(NS(=O)(=O)c2c[nH]c3c(F)c(Br)ccc23)nc(OC)c1OC(F)F [Example 241, 6-bromo-N-[5-(difluoromethoxy)-4,6-dimethoxy-pyrimidin-2-yl]-7-fluoro-1H-indole-3-sulfonamide] | 21
COc1nc(NS(=O)(=O)c2csc3cc(Br)ccc23)ncc1OC(F)F [Example 268, 6-bromo-N-[5-(difluoromethoxy)-4-methoxy-pyrimidin-2-yl]benzothiophene-3-Sulfonamide] | 165
COc1nc(NS(=O)(=O)c2c[nH]c3cc(Br)ccc23)nc(OC)c1OCC(F)F [Example 92, 6-bromo-N-[5-(2,2-difluoroethoxy)-4,6-dimethoxy-pyrimidin-2-yl]-1H-indole-3-sulfonamide] | 18
COc1nc(NS(=O)(=O)c2csc3cc(Cl)ccc23)ncc1CCC#N [Example 156, 6-chloro-N-[5-(2-cyanoethyl)-4-methoxy-pyrimidin-2-yl]benzothiophene-3-sulfonamide] | 92
COc1nc(NS(=O)(=O)c2c[nH]c3c(Cl)c(Cl)ccc23)ncc1OCCF [Example 3, 6,7-dichloro-N-[5-(2-fluoroethoxy)-4-methoxy-pyrimidin-2-yl]-1H-indole-3-sulfonamide] | 50
COc1nc(NS(=O)(=O)c2c[nH]c3nc(C(F)F)ccc23)nc(OC)c1CC(F)CF (stereo not shown) [Example 287, 6-(Difluoromethyl)-N-[5-(2,3-Difluoropropyl)-4,6-Dimethoxy-Pyrimidin-2-Yl]-1H-Pyrrolo[2,3-b]Pyridine-3-Sulfonamide] | 114
COc1nc(NS(=O)(=O)c2c[nH]c3c(F)c(Cl)ccc23)ncc1OC(F)(F)CF [Example 215, 6-chloro-7-fluoro-N-[4-methoxy-5-(1,1,2-trifluoroethoxy)pyrimidin-2-yl]-1H-indole-3-sulfonamide] | 28
COc1nc(NS(=O)(=O)c2c[nH]c3c(F)c(C(F)F)ccc23)ncc1OCCF [Example 247, 6-(difluoromethyl)-7-fluoro-N-[5-(2-fluoroethoxy)-4-methoxy-pyrimidin-2-yl]-1H-indole-3-sulfonamide] | 42
COc1nc(NS(=O)(=O)c2c[nH]c3nc(Br)ccc23)ncc1CCC(F)F [Example 201, 6-bromo-N-[5-(3,3-difluoropropyl)-4-methoxy-pyrimidin-2-yl]-1H-pyrrolo[2,3-b]pyridine-3-sulfonamide] | 30
